From patent US20230146096A1, “USE OF VIDOFLUDIMUS FOR THE TREATMENT OF CORONAVIRUS INFECTIONS” (INSERM (Institut National de la Santé et de la Recherche …, priority 2020, published 2023)
pEC50: −log10 of the molar value. Where two headings read alike, the source gives them in different places.

Test system: SARS-CoV-2 strain BavPat1
Test: Determination of EC50 and EC90: inhibition of SARS-CoV-2 viral RNA replication in Vero E6 cells (RT-qPCR)
Assay type: cell-based
Settings: for pEC50: Severe acute respiratory syndrome coronavirus 2, Vero C1008, 48 h, read-out: EC50 (compound concentration required to inhibit viral RNA replication by 50%)

SMILES: COc1cccc(-c2ccc(NC(=O)C3=C(C(=O)O)CCC3)c(F)c2)c1 [Vidofludimus, 2-[[2-fluoro-4-(3-methoxyphenyl)phenyl]carbamoyl]cyclopentene-1-carboxylic acid]
- pEC50 (Vero E6 cells, MOI 0.002, 2 days at 37° C., viral RNA in supernatant, logarithmic interpolation): 4.64
- effect on replication of SARS-CoV-2 (Vero E6 cells, two days of culture): can repress the replication of SARS-CoV-2 in a significant manner

SMILES: CCC(CC)COC(=O)[C@H](C)N[P@](=O)(OC[C@H]1O[C@@](C#N)(c2ccc3c(N)ncnn23)[C@H](O)[C@@H]1O)Oc1ccccc1 [remdesivir]
- pEC50: 5.18
